Tests used:
ds26 = tested on: ds26; parameters: method as in earlier work; conditions: ref [1], cited from earlier work; for ctDNADC50/ds26DC50: FID selectivity ratio; for ds26DC50: FID
HTG21 G4 = test: Fluorescence titration (Stern-Volmer quenching); assay type: binding, human; conditions: HTG21 G4-DNA, compound 20 μM, 100 mM K+
Method: We asked whether chiral platinum(II) complexes 4–6 have the ability to bind to G-quadruplex DNA. To address this, FRET assays, CD spectroscopy, G4-FID assays, and fluorescence titration analysis were performed. […] For G4-HTG21, the ^G4DC50 values of complexes 4–6 were 1.23, 1.26 and 0.99 μM, respectively; while, for G4-Pu27, the ^G4DC50 values were 1.01, 0.89, and 0.82 μM, respectively. In addition, the ^ctDNADC50/^G4DC50 ratio of the HTG21 and Pu27 G4s treated with complexes 4–6 was in the range of 50.54-90.65 and 71.56-110.67 folds, respectively. To further evaluate the binding ability of complexes 4–6 to Pu27 and HTG21G4s, CD spectroscopy and fluorescence titration analysis were performed. […] The quenching ability of complexes 4–6 to HTG21 and Pu27 G4 DNA fluorescence can be quantitatively estimated by their respective quenching constant (Kq), which was derived from the Stern-Volmer quenching equation. […] Finally, the selective binding of complexes 4–6 towards G4 DNA was analyzed by FRET-melting assays. […] In contrast, the ΔTm value for the F32T+H20M duplex DNA in the presence of complexes 4–6 was 1.18, 1.34, and 0.78 °C under the same conditions (Figure 4A). Altogether, our data indicated complexes 4–6, especially complex 6, is the best binder to G4 DNA, which caused DNA complex displaying the highest thermodynamic stability. […]
Supplementary Figure 25: Fluorescence emission spectra of compounds (20 μM) in 100 mM K+ solution in the absence and
presence of human telomeric G-quadruplex DNA with 4 (A), 5 (B) and 6 (C), respectively.

c-kit-2 = test: FID assay; assay type: binding; conditions: for c-kit-2DC50: FID; for ctDNADC50/c-kit-2DC50: FID selectivity ratio
Pu27 G4 = test: Fluorescence titration (Stern-Volmer quenching); assay type: binding; conditions: Pu27 G4-DNA, compound 20 μM, 100 mM K+
Method: (§1) We asked whether chiral platinum(II) complexes 4–6 have the ability to bind to G-quadruplex DNA. To address this, FRET assays, CD spectroscopy, G4-FID assays, and fluorescence titration analysis were performed. […] For G4-HTG21, the ^G4DC50 values of complexes 4–6 were 1.23, 1.26 and 0.99 μM, respectively; while, for G4-Pu27, the ^G4DC50 values were 1.01, 0.89, and 0.82 μM, respectively. In addition, the ^ctDNADC50/^G4DC50 ratio of the HTG21 and Pu27 G4s treated with complexes 4–6 was in the range of 50.54-90.65 and 71.56-110.67 folds, respectively. To further evaluate the binding ability of complexes 4–6 to Pu27 and HTG21G4s, CD spectroscopy and fluorescence titration analysis were performed. […] The quenching ability of complexes 4–6 to HTG21 and Pu27 G4 DNA fluorescence can be quantitatively estimated by their respective quenching constant (Kq), which was derived from the Stern-Volmer quenching equation. […] Finally, the selective binding of complexes 4–6 towards G4 DNA was analyzed by FRET-melting assays. […] In contrast, the ΔTm value for the F32T+H20M duplex DNA in the presence of complexes 4–6 was 1.18, 1.34, and 0.78 °C under the same conditions (Figure 4A). Altogether, our data indicated complexes 4–6, especially complex 6, is the best binder to G4 DNA, which caused DNA complex displaying the highest thermodynamic stability.
Supplementary Figure 26: Fluorescence emission spectra of compounds (20 μM) in 100 mM K+ solution in the absence and
presence of G-quadruplex Pu27 with 4 (A), 5 (B) and 6 (C), respectively. […]

F21T = test: FRET-melting assay; assay type: binding; conditions: F21T 1.0 μM, compound 2.0 μM
Method: as §1
(§2) Figure 4 Complexes 4–6 induced telomeres damage and inhibited the telomerase activity through directly regulating the mRNA level of c-myc promoter (Pu27) (A) ΔTm data (°C) of 1.0 μM HTG21, Pu39 and c-myc G4s and duplex DNA (F32T+H20M) treated with complexes 1–6 at 0–2.0 μM were evaluated by […]. (B) The levels of TRF2, 53BP1, and TRF1 in BEL-7404 cells treated with complexes 4–6 at 10 μM for 24 h were examined by Western blot. (C) The whole-cell extracts were prepared and analyzed by Western blot analysis using antibodies against TRF2, 53BP1, and TRF1. The same blots were stripped and re-probed with β-actin antibody to show equal protein loading. Western blotting bands from three independent measurements were quantified with Image J. in (B). (D) The influence of complexes 4–6 (10 μM) on the telomerase activity of the BEL-7404 cells for 24 h. (E) The investigations of the expression of c-myc and hTERT in the BEL-7404 tumor cells when incubated with complexes 4–6 (10 μM) for 24 h. C-myc and hTERT protein levels in BEL-7404 cells were analyzed by western blot. (F) The whole-cell extracts were prepared and analyzed by Western blot analysis using antibodies against c-myc and hTERT. The same blots were stripped and re-probed with β-actin antibody to show equal protein loading. Western blotting bands from three independent measurements were quantified with Image J. in (E). (G) qRT-PCR analysis of the expression levels of hTERT and c-myc in the BEL-7404 cells treated with complexes 4–6 (10 μM). The BEL-7404 cells (5×10^5) were treated with complexes 4–6 (10 μM) for 24 h. The total RNA in the cells was extracted and subjected to reverse transcription, followed by PCR for c-myc, hTERT, and GAPDH (control). (H) and (I) The investigations of the role of the transfections of EGFP plasmid vector (H) and c-myc plasmid vector (I) in the BEL-7404 tumor cells when incubated with complexes 4–6 (10 μM) for 24 h. First, 2.0 μg of EGFP-carrying plasmid vector or 2.0 μg of c-myc-carrying plasmid vector was cotransfected into BEL-7404 cells using Lipofectamine 2000 (Invitrogen, Grand Island, NY, USA). Complexes 4–6 (10 μM) were then added, respectively, into medium at 6.0 h after transfection of c-myc plasmid. At another 24 h after treatment with complexes 4–6 (10 μM), these cells were imaged using Nikon TE2000 (Japan) scanning fluorescent microscope or were examined by Multimodel Plate Reader with luciferase reporter gene assay kit. […]

F32T+H20M duplex DNA = test: FRET-melting assay; assay type: binding; conditions: F32T+H20M duplex DNA 1.0 μM, compound 2.0 μM
Method: as §1, §2

FPu18T = test: FRET-melting assay; assay type: binding; conditions: FPu18T 1.0 μM, compound 2.0 μM
Method: as §1, §2

Row | Compound | ctDNADC50/ds26DC50 (ds26) | ds26DC50 (ds26) [µM] | Extent of quenching (%) (HTG21 G4) | Kq (quenching constant, Stern-Volmer) (HTG21 G4) | c-kit-2DC50 (c-kit-2) [µM] | ctDNADC50/c-kit-2DC50 (c-kit-2) | Extent of quenching (%) (Pu27 G4) | Kq (quenching constant, Stern-Volmer) (Pu27 G4) | ΔTm (F21T) [°C] | ΔTm (F32T+H20M duplex DNA) [°C] | ΔTm (FPu18T) [°C]
1 | O=C(NCC(O)CO)c1cnc2c3c(cccc13)-c1ccccc1C2=O.[Cl-].[Cl-].[Pt+2] (racemic) [ligand 1, R/S-(±)-FOA] | 5.31 | 12.05 |  |  |  |  |  |  |  |  | 
2 | O=C(NC[C@@H](O)CO)c1cnc2c3c(cccc13)-c1ccccc1C2=O.[Cl-].[Cl-].[Pt+2] [ligand 2, R-(+)-FOA] | 2.77 | 14.41 |  |  |  |  |  |  |  |  | 
3 | O=C(NC[C@H](O)CO)c1cnc2c3c(cccc13)-c1ccccc1C2=O.[Cl-].[Cl-].[Pt+2] [ligand 3, S-(–)-FOA] | 11.40 | 7.88 |  |  |  |  |  |  |  |  | 
4 | cis-[PtCl2(R-(+)-FOA)] [complex 5] |  |  | 27.21 | 4.36×10^4 L·mol–1 | 3.08 | 20.68 | 30.06 | 8.80×10^4 L·mol–1 | 12.95 | 1.34 | 16.66
5 | cis-[PtCl2(R/S-(±)-FOA)] [complex 4] |  |  | 27.34 | 4.60×10^4 L·mol–1 | 2.48 | 30.59 | 32.54 | 1.02×10^5 L·mol–1 | 13.19 | 1.18 | 19.15
6 | cis-[PtCl2(S-(–)-FOA)] [complex 6] |  |  | 28.42 | 4.65×10^4 L·mol–1 | 4.78 | 18.98 | 40.31 | 1.38×10^5 L·mol–1 | 20.07 | 0.78 | 23.01

Reference: paper PMC5617480 (Oncotarget, 2017)
